This note sets out measurements from patent US8524274B2, “Liposomal composition comprising an active ingredient for relaxing smooth muscle, the production of this composition and the therapeutic use thereof” (Polymun Scientific Immunbiologische Forschung GmbH, priority 2004, dated 2013).

SMILES strings stand for the structures. Structures can show the parent of a compound that is named as a salt.

Series [1] can be described thus: Solubility of the active ingredient in loading buffer systems and in water. Type of series: physicochemical. The settings on record: for solubility in citrate buffer: citric acid (intraliposomal) and citric acid/sodium carbonate pH 7.5-8.0 (extraliposomal). The text has this:
NH3, which is present in a reversible equilibrium with ammonium sulphate in the intraliposomal aqueous medium, attempts to migrate out through the liposome membrane and to leave behind an H^+. Sildenafil migrates in the opposite direction into the liposome, takes up the hydrogen ion H^+, becomes more hydrophilic thereby and therefore remains in the […]. In this way, sildenafil can be efficiently loaded into liposomes. This applies in a similar manner also to the sildenafil alternatives tadalafil and vardenafil.

Series [2] is described as follows: Active loading of DPPC/cholesterol liposomes via H+ gradient; active ingredient and lipid content by rp-HPLC. It is filed as physicochemical. The following applies: two-stage variant; converted from the inclusion rate. Here is the method:
External loading of liposomes with sildenafil by means of H^+ gradient. The best inclusion rates were achieved under the following conditions. The lipids (molar DPPC:cholesterol ratio=55:45; in total 13 to 15 μmol per ml of aqueous phase) were dissolved in ethanol and this solution was injected into 125 mM ammonium sulphate solution. After spontaneous vesicle formation, the remaining, external ammonium sulphate solution was replaced by a 5% glucose solution and sildenafil citrate was added. In this way, an H^+ gradient formed between the inside and outside of the lipid vesicles. pH values below 2.5 are less suitable owing to resultant hydrolysis problems, and pH values greater than 5.5 are also not preferred, owing to the increasingly flat H^+ gradient. An aqueous 125 mM ammonium sulphate solution typically has a pH in the range of about 5-5.5. After removal of sildenafil which has not been included by means of gel filtration, both the active ingredient content and the lipid content were determined by means of rp-HPLC. Liposome size and distribution were determined by means of photon correlation spectroscopy (PCS). […]

In the case of `CCCc1nn(C)c2c(=O)[nH]c(-c3cc(S(=O)(=O)N4CCN(C)CC4)ccc3OCC)nc12` [sildenafil citrate], the “solubility in citrate buffer” value in series [1] is on record as “insoluble or scarcely soluble”. The solubility in water entry in series [1] (water) is on record as “dissolves very readily”.
As for `CCCc1nn(C)c2c(=O)[nH]c(-c3cc(S(=O)(=O)N4CCN(C)CC4)ccc3OCC)nc12` [sildenafil], the “solubility in citrate buffer” value in series [1] is on record as “only poorly soluble or not soluble at all”. Besides, in series [2], the “active ingredient per ml of liposomal suspension” value is recorded as 1000-1500 μg of active ingredient per ml of liposomal suspension.
